Assay results taken from patent EP4609859A1, “INHIBITORS OF THE GENE SMPD1 FOR THE TREATMENT OF SPINAL MUSCULAR ATROPHY” (Universidad Pablo de Olavide, priority 2024, dated 2025).

What was measured:
nematode development = experiment: Visible effect of drug treatment on nematode development; assay type: in vivo, C. elegans; details: at the concentrations tested in the SMN-1 assay
Protocol: (§1) RNAi feeding was performed as described (Kamath and Ahringer, 2003). RNAi clones belong to the Aringher gene library were used: JA:C41G7.1 (smn-1), JA:T18D3.7 (tsct-1), JA:WO3G1.7 (asm-3), JA:C07A12.7 (C07A12.7), JA:C10E2.3 (hda-4), JA:K09A9.4 (usp-33), JA:R01B10.1 (cpi-2), JA:K08B4.6 (cpi-1), JA:K06A4.3 (gsnl-1), JA:F23H11.4 (F23H11.4), JA:T18H9.7 (pacs-1), JA:C41G7.1 (smn-1) and MV_SV: mv_ZK455.4 (asm-2) from Marc Vidal's gene library (Kim et al., 2005). For smn-1 expression assays, gravid hermaphrodites were transferred to empty plasmid pL4440 or RNAi plates, incubated at 20°C for 48 hours and the next generation was analyzed at the L4 stage. For the drug assay, NGM plates were prepared at the indicated concentrations and the respective vehicle was used as a control, then proceeded as in the RNAi assay.

SMN-1 = SMN-1 level by head fluorescence in C. elegans strain mCherry::smn-1 (PHX2635) after drug treatment; assay type: in vivo; details: for level of SMN-1, repeated experiments on different days: Fig. 11, vs non-treated animals
Text: C. elegans strains were cultivated under standard conditions (Stiernagle, 2006). The strains used are as follows: PHX2635: smn-1(syb2635); BN1158: bqSi1152[pBN521(unc-119(+) eft-3p::Frt::mCh::his-58::Frt::UPRT)]II; bqSi577[pBN306(unc-119(+) myo-2p::GFP)] IV. unc-119(ed9)III . The Escherichia coli strains used were: OP50 and HT115.
The strain PHX2635: smn-1(syb2635) was generated by CRISPR technology, we introduced the coding sequence of the fluorescent protein m-Cherry upstream of the TAA stop codon of the C. elegans SMN1 homologous gene, smn-1, as indicated in the sequence: [formula]
as §1, with “For smn-1 expression assays, gravid hermaphrodites were transferred to empty plasmid pL4440 or RNAi plates, incubated at 20°C for 48 hours and the next generation was analyzed at the L4 stage.” left out
L4 worms were mounted in a coverslip with a 2% agarose pad. C. elegans confocal images were acquired using a Nikon A1R microscope equipped with a 60x Plan Apo lens of Numerical Aperture 1.4. Twelve pictures were taken for each worm to be integrated in a Z image. […] Laser intensity, gain and pixel scan speed remained constant along all sets of experiments.
For image analysis, we used FIJI software. The experimentalist drew manually a ROI containing between the second pharynx bulb and the mouth of the nematode. Within this area, mCherry expression was detected using an intensity threshold that remained constant along all images. This minimum intensity level was defined by the experimenter. Within the thresholded volume, we measured the integrated density using the plugin 3D object counter (Bolte and Cordelières, 2006). […]

SMN protein [1] = experiment: Western blot of SMN in human SMA patient fibroblasts; assay type: cell-based; details: SMAII and SMAI fibroblasts, 5µM, 10µM, or 25µM, 24 h
Protocol: Fibroblasts were maintained in Eagle's Minimum Essential Medium (MEM) (Sigma) supplemented with 15% (v/v) non-inactivated fetal bovine serum (FBS) (Gibco), 0.5M of L-Glutamine (Gibco), 1% (v/v) non-essential amino acids, and 20µg/ml of Penicillin-Streptomycin (Gibco). For western blot analysis, cells were plated at 3,000-4,000 cells/cm2 in 35mm dishes and cultured in supplemented MEM for 24 h. For immunofluorescence experiments, 3,000 cells/well were plated in collagen-coated 1cm2 glass coverslips placed into four-well dishes and fixed in 4% paraformaldehyde (Sigma) in PBS.
Western blots were performed as previously described (Gou-Fabregas et al., 2009). Cell lysates were resolved in sodium dodecyl-sulfate polyacrylamide (SDS-PAGE) gels and transferred onto polyvinylidene difluoride (PVDF) Immobilon-P transfer membranes (Millipore, Burlington, MA, USA) using an Amersham Biosciences semidry Trans-Blot (Buckinghamshire, UK). Membranes were blotted with: anti-SMN (1: 5,000, Cat. No. 610646, BD Transduction Laboratories, Franklin Lakes, NJ, USA) and anti-SMPD1 (1: 300, Cat. No. 14609-1-AP, ProteinTech, Manchester, UK). To control the specific protein content per lane, membranes were reproved with anti-α-tubulin antibody (1: 50,000, Cat. No. T5168, Sigma). […]

SMPD1 [2] = target: T1, SMPD1 (Homo sapiens, UniProt P17405); experiment: Immunofluorescence (CTCF) of SMPD1 in human SMA fibroblasts; assay type: cell-based; details: SMAII fibroblasts, 20µM, 24 h; untreated 105.8±5.64; p<0.0001
T1 construct: host or cells: human SMA type 2 patient fibroblasts (SMAII)
T1 sequence (P17405 47-631): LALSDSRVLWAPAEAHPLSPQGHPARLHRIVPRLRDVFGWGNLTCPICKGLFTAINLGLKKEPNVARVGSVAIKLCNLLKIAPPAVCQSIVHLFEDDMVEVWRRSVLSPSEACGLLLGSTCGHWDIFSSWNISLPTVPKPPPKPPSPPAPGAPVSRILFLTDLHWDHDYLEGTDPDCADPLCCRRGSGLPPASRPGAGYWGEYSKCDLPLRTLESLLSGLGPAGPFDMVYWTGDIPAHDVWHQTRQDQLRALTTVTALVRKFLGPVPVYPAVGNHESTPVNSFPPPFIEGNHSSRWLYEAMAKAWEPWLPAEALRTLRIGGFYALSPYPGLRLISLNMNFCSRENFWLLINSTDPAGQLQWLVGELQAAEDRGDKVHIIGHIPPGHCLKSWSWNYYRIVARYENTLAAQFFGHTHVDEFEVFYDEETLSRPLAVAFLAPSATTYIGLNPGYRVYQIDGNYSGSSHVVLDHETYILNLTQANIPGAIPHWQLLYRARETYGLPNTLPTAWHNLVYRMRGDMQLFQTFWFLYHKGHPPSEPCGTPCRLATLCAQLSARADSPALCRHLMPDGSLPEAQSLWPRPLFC
Protocol: Two human fibroblasts cell lines from SMA patients (GM03813, SMA type 2 patient, SMAII; and GM09677, SMA type 1 patient, SMAI) and one healthy control (GM03814, Control) were obtained and cultured following the manufacturer instructions. Fibroblasts were maintained in Eagle's Minimum Essential Medium (MEM) (Sigma) supplemented with 15% (v/v) non-inactivated fetal bovine serum (FBS) (Gibco), […] of L-Glutamine (Gibco), 1% (v/v) non-essential amino acids, and 20µg/ml of Penicillin-Streptomycin (Gibco). For western blot analysis, cells were plated at 3,000-4,000 cells/cm2 in 35mm dishes and cultured in supplemented MEM for 24 h. […]
(§2) Cultured cells were fixed with 4% paraformaldehyde (Sigma) for 10 min and cold methanol (Sigma) for 30 min more. […] Quantification of fluorescence intensity was performed blinded, using the NIH ImageJ software (Schindelin et al., 2012). Using phase contrast images, the cell perimeter was manually delimited and transferred to the corresponding fluorescence images. The Integrated Density (IntDen) was measured in the selected area of the cell. Three non-fluorescent surrounding regions were measured to set up the background readings. The fluorescence intensity was calculated using the following formula: Corrected Total Cell Fluorescence (CTCF) = IntDen (sum of the values of the pixels in the selection) - (area of the cell x mean fluorescence of the background).

SMN protein [3] = experiment: Western blot of SMN in iPSC-differentiated human SMA MNs; assay type: cell-based; details: remaining doses of 5µM, 10µM, 20µM in SMAI and SMAII MNs, 24 h
Text: (§3) Three human iPSCs lines were used in the present work. The GM23411*B (Coriell Institute) iPSC cell line obtained from a healthy […] individual was used as control. The GM23240*B (Coriell Institute) iPSCs obtained from a fibroblast cell line of a […] SMA type 2 patient (2 copies SMN2; deletion exon7-8 in SMN1) was used as SMAII condition. SMAII patient was previously classified as SMA type 1, but several data supported re-classification to SMA type 2. The CS84iSMA-nxx (Cedar Sinai, Los Angeles, USA) iPSCs obtained from a lymphoblast cell line of a […] SMA type 1 patient (2 copies SMN2; deletion exon7-8 in SMN1) was used as SMAI condition.
Human iPSCs were differentiated to MNs as previously described (de la Fuente et al., 2020; Du et al., 2015). Cell lines were cultured and expanded on Geltrex (Sigma)-coated plates in Essential 8 medium (Gibco). Neuroepithelial cells and MN progenitors were generated following the established protocol. To induce MN differentiation, MN progenitors were detached with Accutase (Gibco) and cultured in suspension in MN induction medium (DMEM/F12: NBM plus 1:1 supplemented with B27, L-glutamine [all from Gibco], 0.1mM ascorbic acid [Sigma], 3µM CHIR99021; 2µM SB431512, 2µM DMH1 [all from Cayman, Ann Harbor, MI, USA], 0.5µM retinoic acid [Sigma], and 0.1µM purmorphamine [Cayman]). […]

SMPD1 [4] = target: T1, SMPD1; experiment: Immunofluorescence (CTCF) of SMPD1 in differentiated human SMA MNs; assay type: cell-based; details: SMAI MNs, 10µM, 24 h; untreated 126.7±5.74; p<0.0001
Text: as §3, with “SMAI condition. […]” for “SMAI condition.”
as §2

CCOC(=O)C1=C(COCCN)NC(C)=C(C(=O)OC)C1c1ccccc1Cl (stereo not shown) [amlodipine] was tested, and the “visible effect on nematode development” value (nematode development) was “delay in nematode development”.
CN(C)CCCN1c2ccccc2CCc2ccc(Cl)cc21 [clomipramine] was tested, and the “SMN-1 level after treatment exclusively during the adult stage” value (SMN-1; 100 µM, 48 hours, started at adulthood, vs untreated) was “significant increase”, the “level of SMN-1, repeated experiments on different days” value (SMN-1; 100 µM) was “statistically significant increase” and the “visible effect on nematode development” value (nematode development) was “did not show a visible negative effect”. For the same molecule, the SMN protein level (SMN protein [1]) was “did not increase SMN protein level”, the “SMPD1 relative fluorescence in cell soma (CTCF)” value (SMPD1 [2]) was 56.59±4.03 and the “SMN protein compared to untreated control” value (SMN protein [3]) was “No significant differences”. For the same molecule, the “SMPD1 relative fluorescence in cell soma (CTCF)” value (SMPD1 [4]) was 91.62±3.64.
CNCCCN1c2ccccc2CCc2ccccc21 [desipramine] was tested, and the “level of SMN-1, repeated experiments on different days” value (SMN-1; 500 µM) was “statistically significant increase” and the “visible effect on nematode development” value (nematode development) was “delay in nematode development”.
